The text below walks through data of patent publication US10772911B2, “Cell free compositions for cellular restoration and methods of making and using same” (Advanced ReGen Medical Technologies, LLC, priority 2013, dated 2020).

Holding throughout (format): cell-based
In assay [1] the test system is telomere length. The experiment in a line: telomere length of restored cell sample. To be noted: pair R1-D1, presence vs absence of manumycin; FIG. 12. From the text: In an embodiment, the donor cell sample, receiver cell sample, or both are subjected to at least one analytical technique to characterize the quality of the cell sample. Herein, the “quality” of the cell sample refers to factors used to characterize the cellular health of the sample and includes parameters such as the number and types of cells present in the sample; the ratio of senescent to non-senescent cells in the sample; the extent of expression of a group of genetic and/or protein biomarkers; the average telomere length of the cells in the sample; and the status of the innate immune function of the cells in the sample. Telomere length may be determined using any suitable methodology, for example, terminal restriction fragment (TRF) analysis. Innate immune function may be evaluated using any suitable methodology such as the ^51Cr cytotoxicity release natural killer cell assay. The donor cell sample quality may be an assessment of the ability of the cells in the sample to improve and/or restore one or more cellular functions of the cells in the receiver cell sample.
Receiver cell samples (i.e., R1, R2, and R3) were individually paired with donor cell samples (i.e., D1, D2, and D3) and the pairs co-cultured in a transwell culture cell for four weeks. The morphology of the cells was studied at 2 weeks into the co-culture and at 4 weeks of co-culture. […]

Assay [2] has as its system senescence-related genes. In words: quantitative PCR gene array of senescence-related genes. To be noted: co-cultured in the presence of manumycin vs absence. From the text: (§1) Receiver cell samples (i.e., R1, R2, and R3) were individually paired with donor cell samples (i.e., D1, D2, and D3) and the pairs co-cultured in a transwell culture cell for four weeks. The morphology of the cells was studied at 2 weeks into the co-culture and at 4 weeks of co-culture. Gene expression arrays, protein arrays, and telomere length experiments compared freshly defrosted cells from the collection tubes (referred to as the baseline donor cell sample or baseline receiver cell sample) with cells at the 4-week study endpoint (referred to as restored cell samples).
(§2) Protein array analyses were carried out using conditioned media from the baseline donor cell sample or baseline receiver cell sample. The conditioned media was mixed with like cellular protein extracts and applied to the custom-designed arrays which consisted of antibody probes for 68 factors linked to cellular aging and senescence, collectively referred to as the senescence-associated secretory factors (SASF). Quantitative PCR gene array analyses were carried out by extracting RNA from the baseline samples or the co-cultured donor and receiver samples. The data presented represents the average metric determined for either the baseline donor cell sample, the baseline receiver cell sample, or the restored cell sample. […]

The test system of assay [3] is senescence-associated secretory factors (SASF). The experiment in a line: protein array of senescence-associated secretory factors. The conditions noted are these: co-cultured in the presence of manumycin vs absence; FIG. 11.
Source text: as §1, §2

Assay [4] relates to restored cells. The experiment in a line: cell morphology in transwell co-culture. To be noted: co-cultured in the presence of 5 μM manumycin vs absence.
Source text: as §1
The nature of the soluble particles passing through the permeable membrane in the transwell co-culture experiments was investigated. Specifically, transwell co-culture experiments were carried out in the presence or absence of manumycin. Manumycin, -[(1S,5S,6R)-5-hydroxy-5-[(1E,3E,5E)-7-[(2-hydroxy-5-oxo-1-cyclopenten-1-yl)amino]-7-oxo-1,3,5-heptatrien-1-yl]-2-oxo-7-oxabicyclo[4.1.0]hept-3-en-3-yl]-2E,4E,6R-trimethyl, 2,4-decadienamide, is an antibiotic that acts a potent and selective farnesytransferase inhibitor. Mannumycin is also known to inhibit the release of exosomes. […] Further support for the role of exosome/microvesicles in mediating the disclosed cellular restoration process is shown in FIG. 12.

Regarding `CCCC[C@@H](C)/C=C(C)/C=C(\C)C(=O)NC1=C[C@@](O)(/C=C/C=C/C=C/C(=O)NC2=C(O)CCC2=O)[C@@H]2O[C@@H]2C1=O` [manumycin, -[(1S,5S,6R)-5-hydroxy-5-[(1E,3E,5E)-7-[(2-hydroxy-5-oxo-1-cyclopenten-1-yl)amino]-7-oxo-1,3,5-heptatrien-1-yl]-2-oxo-7-oxabicyclo[4.1.0]hept-3-en-3-yl]-2E,4E,6R-trimethyl, 2,4-decadienamide], the “telomere length of restored cell sample” value in assay [1] is on record as “decreased”. For the same molecule, the “gene expression of restored cell samples” value in assay [2] was “did not display a change in expression levels similar to those observed in the absence of manumycin”. Moreover, the “protein expression levels of restored cell samples” value in assay [3] is “elevated levels of all proteins investigated”. Also, in assay [4], the “morphology of restored cells” value is given as “less robust morphology”.
